In US11787778B2, “Bi-functional compounds and methods for targeted ubiquitination of androgen receptor” (MONTELINO THERAPEUTICS, INC., priority 2019, dated 2023):
Where two headings read alike, the source gives them in different places. Where a SMILES comes first, the peptide text is derived from it. [ ]: non-standard residue; d: D form. The star is where a group is joined. X1 = O=C(COc1c(-c2csc(N3CCOCC3)n2)ccc(F)c1F)NCCCCCCN*; X2 = Fc1ccc(-c2csc(N3CCOCC3)n2)c(OCCOCCOCCN*)c1F; Dip = N[C@H](C(=O)O)C(c1ccccc1)c1ccccc1; Chg = N[C@H](C(=O)O)C1CCCCC1; NMeA = CN[C@@H](C)C(=O)O

System: 22Rv1
Test: 22Rv1 cell count decrease
Type: cell-based
Conditions: Homo sapiens
Protocol: The human prostate cancer cell line, 22Rv1 has been reported to express a high level of AR-V7. […] Standard culture media was RPMI-1640 supplemented with 10% fetal bovine serum. The test compound initially was dissolved in DMSO at 50 mM. This stock solution was then diluted as needed for the indicated concentrations. […]

[1] = read-out: 22Rv1 cell count decrease at 10 uM for 48 hours, 22Rv1 cells, 10 uM, read-out: 22Rv1 cell count decrease at 10 uM

Compound | inhibition at 10 µM [1] [%] | inhibition at 10 µM (22Rv1, read-out: 22Rv1 cell count decrease at 10 uM for 48 hours) [%]
O=C1CCC(N2C(=O)c3cccc(NCCCCCCNC(=O)c4cn(-c5csc(N6CCOCC6)n5)cn4)c3C2=O)C(=O)N1 (stereo not drawn) [Example 32, N-(6-((2-(2,6-dioxopiperidin-3-yl)-1,3-dioxoisoindolin-4-yl)amino)hexyl)-1-(2-morpholinothiazol-4-yl)-1H-imidazole-4-carboxamide] | 0 to 20 | 
CN[C@@H](C)C(=O)N[C@H](C(=O)N1CCC[C@H]1C(=O)N[C@H](C(=O)NCCOCCOCCOc1c(-c2csc(N3CCOCC3)n2)ccc(F)c1F)C(c1ccccc1)c1ccccc1)C1CCCCC1 [Example 24, (S)-1-((S)-2-cyclohexyl-2-((S)-2-(methylamino)propanamido)acetyl)-N-((S)-1-((2-(2-(2-(2,3-difluoro-6-(2-morpholinothiazol-4-yl)phenoxy)ethoxy)ethoxy)ethyl)amino)-1-oxo-3,3-diphenylpropan-2-yl)pyrrolidine-2-carboxamide] (H-[NMeA][Chg]P[Dip]-X2) |  | > 50
CN[C@@H](C)C(=O)N[C@H](C(=O)N1CCC[C@H]1C(=O)N[C@H](C(=O)NCCCCCCNC(=O)COc1c(-c2csc(N3CCOCC3)n2)ccc(F)c1F)C(c1ccccc1)c1ccccc1)C1CCCCC1 [Example 26, (S)-1-((S)-2-cyclohexyl-2-((S)-2-(methylamino)propanamido)acetyl)-N-((S)-1-((6-(2-(2,3-difluoro-6-(2-morpholinothiazol-4-yl)phenoxy)acetamido)hexyl)amino)-1-oxo-3,3-diphenylpropan-2-yl)pyrrolidine-2-carboxamide] (H-[NMeA][Chg]P[Dip]-X1) | > 50 | 
